Experimental data from patent US8802597B2, “Herbicidal pyrimidines” (E I du Pont de Nemours and Company, priority 2003, dated 2014).

Columns and labels:
Assay in all cases: Test C pre/postemergence
Format in all cases: in vivo
[1] = tested on: Surinam grass (Brachiaria decumbens); details: for Surinam Grass plant response rating: scale 0 to 100 (0 no effect, 100 complete control)
In short: (§1)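 Percent control is a visual rating (0 none, 100 complete) taken against untreated plants after 12 to 14 days of greenhouse growth. Applications were made preemergence to seeded pots and postemergence to plants at the 1- to 4-leaf stage, in a non-phytotoxic surfactant-containing solvent.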

[2] = tested on: crabgrass (Digitaria sanguinalis); details: for Crabgrass plant response rating: scale 0 to 100 (0 no effect, 100 complete control)
In short: as §1

[3] = tested on: johnsongrass (Sorghum halepense)
In short: as §1

[4] = tested on: woolly cupgrass (Eriochloa villosa); details: for Cupgrass, Woolly plant response rating: scale 0 to 100 (0 no effect, 100 complete control)
In short: as §1

[5] = tested on: common (oilseed) sunflower (Helianthus annuus); details: Preemergence
In short: as §1

[6] = tested on: kochia (Kochia scoparia); details: for Kochia plant response rating: scale 0 to 100 (0 no effect, 100 complete control); for Plant response rating, Kochia: scale 0 to 100
In short: as §1

[7] = tested on: soybean (Glycine max); details: for Soybean plant response rating: scale 0 to 100 (0 no effect, 100 complete control)
In short: as §1

[8] = tested on: morningglory (Ipomoea coccinea); details: for Morningglory plant response rating: scale 0 to 100 (0 no effect, 100 complete control)
In short: as §1

[9] = tested on: goosegrass (Eleusine indica); details: for Goosegrass plant response rating: scale 0 to 100 (0 no effect, 100 complete control)
In short: as §1

[10] = tested on: pigweed (Amaranthus retroflexus); details: for Pigweed plant response rating: scale 0 to 100 (0 no effect, 100 complete control)
In short: as §1

[11] = tested on: bermudagrass (Cynodon dactylon); details: for Bermudagrass plant response rating: scale 0 to 100 (0 no effect, 100 complete control); for Plant response rating, Bermudagrass: scale 0 to 100
In short: as §1

[12] = tested on: giant foxtail (Setaria faberii); details: for Foxtail, Giant plant response rating: scale 0 to 100 (0 no effect, 100 complete control)
In short: as §1

[13] = Postemergence, 250 g ai/ha, scale 0 to 100
[14] = Postemergence, 500 g ai/ha, scale 0 to 100
[15] = Preemergence, 62 g ai/ha, scale 0 to 100, 0 no effect, 100 complete control
[16] = Preemergence, 125 g ai/ha, scale 0 to 100
[17] = Preemergence, 250 g ai/ha, scale 0 to 100
[18] = Preemergence, 500 g ai/ha, scale 0 to 100

CN(C)N=Cc1nc(C2CC2)nc(N)c1Br [Compound 50]
Surinam Grass plant response rating ([1]; Postemergence, 62 g ai/ha): 0 | Surinam Grass plant response rating ([1]; Postemergence, 125 g ai/ha): 0 | Plant response rating, Surinam Grass [1, 13]: 0 | Plant response rating, Surinam Grass [1, 14]: 60 | Plant response rating, Surinam Grass [1, 15]: 0 | Plant response rating, Surinam Grass [1, 16]: 15 | Plant response rating, Surinam Grass [1, 17]: 65 | Plant response rating, Surinam Grass [1, 18]: 85 | Crabgrass plant response rating ([2]; Postemergence, 62 g ai/ha): 60 | Crabgrass plant response rating ([2]; Postemergence, 125 g ai/ha): 60 | Plant response rating, Crabgrass [2, 13]: 75 | Plant response rating, Crabgrass [2, 14]: 80 | Plant response rating, Crabgrass [2, 15]: 90 | Plant response rating, Crabgrass [2, 16]: 90 | Plant response rating, Crabgrass [2, 17]: 95 | Plant response rating, Crabgrass [2, 18]: 95 | Johnsongrass plant response rating ([3]; Postemergence, 62 g ai/ha, scale 0 to 100 (0 no effect, 100 complete control)): 0 | Plant response rating, Johnsongrass [3, 14]: 60 | Plant response rating, Johnsongrass [3, 15]: 0 | Plant response rating, Johnsongrass [3, 16]: 55 | Plant response rating, Johnsongrass [3, 17]: 65 | Plant response rating, Johnsongrass [3, 18]: 85 | Cupgrass, Woolly plant response rating ([4]; Postemergence, 62 g ai/ha): 0 | Cupgrass, Woolly plant response rating ([4]; Postemergence, 125 g ai/ha): 0 | Plant response rating, Cupgrass, Woolly [4, 13]: 15 | Plant response rating, Cupgrass, Woolly [4, 14]: 30 | Plant response rating, Cupgrass, Woolly [4, 15]: 0 | Plant response rating, Cupgrass, Woolly [4, 16]: 0 | Plant response rating, Cupgrass, Woolly [4, 17]: 0 | Plant response rating, Cupgrass, Woolly [4, 18]: 40 | Plant response rating, Sunflower ([5]; 62 g ai/ha, scale 0 to 100, 0 no effect, 100 complete control): 15 | Plant response rating, Sunflower ([5]; 125 g ai/ha, scale 0 to 100): 55 | Plant response rating, Sunflower ([5]; 250 g ai/ha, scale 0 to 100): 95 | Plant response rating, Sunflower ([5]; 500 g ai/ha, scale 0 to 100): 100 | Kochia plant response rating ([6]; Postemergence, 62 g ai/ha): 20 | Kochia plant response rating ([6]; Postemergence, 125 g ai/ha): 55 | Plant response rating, Kochia ([6]; Postemergence, 250 g ai/ha): 65 | Plant response rating, Kochia ([6]; Postemergence, 500 g ai/ha): 95 | Plant response rating, Kochia ([6]; Preemergence, 125 g ai/ha): 0 | Plant response rating, Kochia ([6]; Preemergence, 250 g ai/ha): 20 | Plant response rating, Kochia ([6]; Preemergence, 500 g ai/ha): 90 | Soybean plant response rating ([7]; Postemergence, 62 g ai/ha): 95 | Soybean plant response rating ([7]; Postemergence, 125 g ai/ha): 95 | Plant response rating, Soybean [7, 13]: 100 | Plant response rating, Soybean [7, 14]: 100 | Plant response rating, Soybean [7, 15]: 0 | Plant response rating, Soybean [7, 16]: 60 | Plant response rating, Soybean [7, 17]: 75 | Plant response rating, Soybean [7, 18]: 90 | Morningglory plant response rating ([8]; Postemergence, 62 g ai/ha): 65 | Morningglory plant response rating ([8]; Postemergence, 125 g ai/ha): 80 | Plant response rating, Morningglory [8, 13]: 85 | Plant response rating, Morningglory [8, 14]: 95 | Plant response rating, Morningglory [8, 15]: 80 | Plant response rating, Morningglory [8, 16]: 95 | Plant response rating, Morningglory [8, 17]: 95 | Plant response rating, Morningglory [8, 18]: 100 | Goosegrass plant response rating ([9]; Postemergence, 62 g ai/ha): 0 | Goosegrass plant response rating ([9]; Postemergence, 125 g ai/ha): 0 | Plant response rating, Goosegrass [9, 13]: 0 | Plant response rating, Goosegrass [9, 14]: 0 | Plant response rating, Goosegrass [9, 15]: 0 | Plant response rating, Goosegrass [9, 16]: 0 | Plant response rating, Goosegrass [9, 17]: 0 | Plant response rating, Goosegrass [9, 18]: 0 | Pigweed plant response rating ([10]; Postemergence, 62 g ai/ha): 75 | Pigweed plant response rating ([10]; Postemergence, 125 g ai/ha): 80 | Plant response rating, Pigweed [10, 13]: 85 | Plant response rating, Pigweed [10, 14]: 95 | Plant response rating, Pigweed [10, 15]: 75 | Plant response rating, Pigweed [10, 16]: 90 | Plant response rating, Pigweed [10, 17]: 95 | Plant response rating, Pigweed [10, 18]: 100 | Bermudagrass plant response rating ([11]; Postemergence, 62 g ai/ha): 50 | Bermudagrass plant response rating ([11]; Postemergence, 125 g ai/ha): 75 | Plant response rating, Bermudagrass ([11]; Postemergence, 250 g ai/ha): 90 | Plant response rating, Bermudagrass ([11]; Postemergence, 500 g ai/ha): 95 | Plant response rating, Bermudagrass ([11]; Preemergence, 125 g ai/ha): 0 | Plant response rating, Bermudagrass ([11]; Preemergence, 250 g ai/ha): 0 | Plant response rating, Bermudagrass ([11]; Preemergence, 500 g ai/ha): 95 | Foxtail, Giant plant response rating ([12]; Postemergence, 62 g ai/ha): 0 | Foxtail, Giant plant response rating ([12]; Postemergence, 125 g ai/ha): 0 | Plant response rating, Foxtail, Giant [12, 13]: 0 | Plant response rating, Foxtail, Giant [12, 14]: 20 | Plant response rating, Foxtail, Giant [12, 15]: 0 | Plant response rating, Foxtail, Giant [12, 16]: 0 | Plant response rating, Foxtail, Giant [12, 17]: 0 | Plant response rating, Foxtail, Giant [12, 18]: 70
